This assay has as its system Eschericia coli strain ATCC25922. Nature of the assay: standard microdilution assay to determine minimum inhibitory concentrations (MICs). The assay is classed as cell-based. Conditions: Escherichia coli, ATCC25922, Eschericia coli strain ATCC25922, standard microdilution assay; read-out: E. coli ATCC25922 MIC. The essentials: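 Broth microdilution per CLSI protocols, typically 100 µL final volume, against E. coli ATCC25922. MIC values scored as +/− against a cutoff of 16 micrograms/ml.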
A general note: Broth dilution looks for growth in wells or tubes with falling amounts of substance.
Turning to `NCCCN1CCCC(c2c[nH]c(NC(=O)Nc3ccccc3OC(F)(F)F)nc2=O)CC1` (stereo not drawn) [Compound 516], the MIC – broadly, the lowest concentration found to suppress growth – is greater than 16 µg/mL. `N=C(N)NCCCN1CCCC(c2c[nH]c(NC(=O)Nc3ccccc3OC(F)(F)F)nc2=O)CC1` (stereo not drawn) [Compound 517]: the minimum inhibitory concentration (MIC) was greater than 16 µg/mL. On to `NCCCCCN1CCN(c2c[nH]c(NC(=O)Nc3ccccc3OC(F)(F)F)nc2=O)CC1` [Compound 518], for which the MIC was greater than 16 µg/mL. On to `N=C(N)NCCCCCN1CCN(c2c[nH]c(NC(=O)Nc3ccccc3OC(F)(F)F)nc2=O)CC1` [Compound 519], for which the MIC is greater than 16 µg/mL. Regarding `NCCCCN1CCN(c2c[nH]c(NC(=O)Nc3cc(F)c(F)cc3F)nc2=O)CC1` [Compound 520], the MIC is greater than 16 µg/mL. `NCCCCN1CCN(c2c[nH]c(NC(=O)Nc3cccc(Cl)c3F)nc2=O)CC1` [Compound 521]: the minimum inhibitory concentration (MIC) was greater than 16 µg/mL. As to `NCCCCN1CCN(c2c[nH]c(NC(=O)Nc3ccccc3OC(F)(F)F)nc2=O)CC1` [Compound 522], the minimum inhibitory concentration (MIC) was greater than 16 µg/mL. Under `NCCCCN1CCCC(c2c[nH]c(NC(=O)Nc3ccccc3OC(F)(F)F)nc2=O)CC1` (stereo not drawn) [Compound 524] stands greater than 16 µg/mL. Under `N=C(N)NCCCCN1CCCC(c2c[nH]c(NC(=O)Nc3ccccc3OC(F)(F)F)nc2=O)CC1` (stereo not drawn) [Compound 525] stands greater than 16 µg/mL. Take `COc1nc(NC(=O)NCCc2nc3ccccc3o2)ncc1-c1ccc(CNCCCN)c(F)c1` [Compound 526]: the minimum inhibitory concentration (MIC) is greater than 16 µg/mL. For the compound `NCCCN1CC2(CCN(c3c[nH]c(NC(=O)Nc4ccccc4OC(F)(F)F)nc3=O)C2)C1` [Compound 527], the MIC was greater than 16 µg/mL. As to `NCCCCN1CCN(c2c[nH]c(Nc3nc4ccccc4[nH]3)nc2=O)CC1` [Compound 530], the minimum inhibitory concentration (MIC) was greater than 16 µg/mL.

Consider `N=C(N)NCCCCN1CCN(c2c[nH]c(Nc3nc4ccccc4[nH]3)nc2=O)CC1` [Compound 531], for which the MIC was greater than 16 µg/mL. Under `N=C(N)NCCCCN1CCN(c2c[nH]c(NC(=O)Nc3ccccc3OC(F)(F)F)nc2=O)CC1` [Compound 534] stands greater than 16 µg/mL; under `NCCCCN1CCC(c2c[nH]c(NC(=O)Nc3cc(F)c(F)cc3F)nc2=O)CC1` [Compound 535], greater than 16 µg/mL. As for `NCCCCN1CCC(c2c[nH]c(NC(=O)Nc3cccc(Cl)c3F)nc2=O)CC1` [Compound 536], the minimum inhibitory concentration (MIC) was greater than 16 µg/mL. Consider `NCCCCN1CCC(c2c[nH]c(NC(=O)Nc3ccccc3OC(F)(F)F)nc2=O)CC1` [Compound 537], for which the MIC is greater than 16 µg/mL. On to `NCCCCCN1CCC(c2c[nH]c(NC(=O)Nc3cc(F)c(F)cc3F)nc2=O)CC1` [Compound 538], for which the minimal inhibitory concentration (MIC) was greater than 16 µg/mL. On to `NCCCNCc1ccc(-c2c[nH]c(NC(=O)NCCCc3ccccc3OC(F)(F)F)nc2=O)cc1F` [Compound 539], for which the MIC is less than 16 µg/mL. In the case of `N=C(N)NCCCNCc1ccc(-c2c[nH]c(NC(=O)NCCCc3ccccc3OC(F)(F)F)nc2=O)cc1F` [Compound 540], the MIC was greater than 16 µg/mL.

In the case of `NCCCCCN1CCN(c2c[nH]c(Nc3nc4cc(F)c(F)cc4[nH]3)nc2=O)CC1` [Compound 541], the MIC is greater than 16 µg/mL. Consider `N=C(N)NCCCCCN1CCC(c2c[nH]c(NC(=O)Nc3cc(F)c(F)cc3F)nc2=O)CC1` [Compound 545], for which the MIC is greater than 16 µg/mL. For `N=C(N)NCCCCN1CCC(c2c[nH]c(NC(=O)Nc3cc(F)c(F)cc3F)nc2=O)CC1` [Compound 546], the minimum inhibitory concentration (MIC) was greater than 16 µg/mL.

Consider `N=C(N)NCCCCN1CCC(c2c[nH]c(NC(=O)Nc3cccc(Cl)c3F)nc2=O)CC1` [Compound 547], for which the minimal inhibitory concentration (MIC) was greater than 16 µg/mL. Consider `N=C(N)NCCCCN1CCC(c2c[nH]c(NC(=O)Nc3ccccc3OC(F)(F)F)nc2=O)CC1` [Compound 548], for which the MIC was greater than 16 µg/mL. Turning to `NCCCCCN1CCC(c2c[nH]c(NC(=O)Nc3cccc(Cl)c3F)nc2=O)CC1` [Compound 549], the MIC was greater than 16 µg/mL. Under `NCCCCCN1CCC(c2c[nH]c(NC(=O)Nc3ccccc3OC(F)(F)F)nc2=O)CC1` [Compound 550] stands greater than 16 µg/mL; under `NCCCNCc1ccc(-c2c[nH]c(NC(=O)Nc3cc(F)c(F)cc3F)nc2=O)cn1` [Compound 551], greater than 16 µg/mL; under `NCCCNCc1ccc(-c2c[nH]c(NC(=O)Nc3cccc(Cl)c3F)nc2=O)cn1` [Compound 552], greater than 16 µg/mL.

As to `NCCCNCc1ccc(-c2c[nH]c(NC(=O)Nc3ccccc3OC(F)(F)F)nc2=O)cn1` [Compound 553], the MIC is greater than 16 µg/mL. For the compound `NCCCNCc1ccc(-c2c[nH]c(NC(=O)NCCc3nc4cc(F)c(F)cc4[nH]3)nc2=O)cc1F` [Compound 554], the minimum inhibitory concentration (MIC) is greater than 16 µg/mL. Consider `NCCCNCc1ccc(-c2c[nH]c(NC(=O)NCCc3nc4ccccc4[nH]3)nc2=O)cc1F` [Compound 555], for which the minimal inhibitory concentration (MIC) is greater than 16 µg/mL.

Regarding `NCCCNCc1ccc(-c2c[nH]c(NC(=O)NCc3nc4ccccc4[nH]3)nc2=O)cc1F` [Compound 556], the minimal inhibitory concentration (MIC) was greater than 16 µg/mL.

Take `N=C(Nc1ccccc1)Nc1nc(=O)c(-c2ccc(CNCCCN)c(F)c2)c[nH]1` [Compound 573]: the MIC was greater than 16 µg/mL.

Regarding `NCCCNCc1ccc(-c2c[nH]c(NC(=O)NCCCc3cc(F)c(F)cc3F)nc2=O)cc1F` [Compound 574], the minimal inhibitory concentration (MIC) is greater than 16 µg/mL.

For `N=C(N)NCCCNCc1ccc(-c2c[nH]c(NC(=O)NCCCc3cc(F)c(F)cc3F)nc2=O)cc1F` [Compound 582], the MIC is greater than 16 µg/mL. Under `N=C(N)NCCCCCN1CCC(c2c[nH]c(NC(=O)Nc3cccc(Cl)c3F)nc2=O)CC1` [Compound 583] stands greater than 16 µg/mL; under `N=C(N)NCCCCCN1CCC(c2c[nH]c(NC(=O)Nc3ccccc3OC(F)(F)F)nc2=O)CC1` [Compound 584], greater than 16 µg/mL. Regarding `N=C(N)NCCCNCc1ccc(-c2c[nH]c(NC(=O)Nc3cc(F)c(F)cc3F)nc2=O)cn1` [Compound 585], the MIC was greater than 16 µg/mL. On to `NCCCNCc1ccc(-c2c[nH]c(Nc3nc4ccccc4o3)nc2=O)cc1F` [Compound 588], for which the minimum inhibitory concentration (MIC) is less than 16 µg/mL.

For the compound `COc1nc(Nc2nc3ccccc3o2)ncc1-c1ccc(CNCCCN)c(F)c1` [Compound 589], the MIC was greater than 16 µg/mL.

Turning to `N=C(N)NCCCNCc1ccc(-c2c[nH]c(NC(=O)Nc3cccc(Cl)c3F)nc2=O)cn1` [Compound 593], the minimal inhibitory concentration (MIC) was less than 16 µg/mL.

As to `N=C(N)NCCCNCc1ccc(-c2c[nH]c(NC(=O)Nc3ccccc3OC(F)(F)F)nc2=O)cn1` [Compound 594], the MIC is less than 16 µg/mL. For the compound `NCCCCNC1CCN(c2c[nH]c(NC(=O)Nc3ccccc3OC(F)(F)F)nc2=O)CC1` [Compound 599], the MIC was greater than 16 µg/mL. Under `N=C(N)NCCCCNC1CCN(c2c[nH]c(NC(=O)Nc3ccccc3OC(F)(F)F)nc2=O)CC1` [Compound 605] stands greater than 16 µg/mL; under `NCCCNCc1ccc(-c2c[nH]c(NCCc3nc4cc(F)c(F)cc4[nH]3)nc2=O)cc1F` [Compound 607], greater than 16 µg/mL. Under `NCCCNCc1ccc(-c2c[nH]c(NCCc3nc4cc(F)c(F)cc4o3)nc2=O)cc1F` [Compound 608] stands greater than 16 µg/mL; under `NCCCCNC1CCN(c2c[nH]c(NC(=O)Nc3cc(F)c(F)cc3F)nc2=O)CC1` [Compound 619], greater than 16 µg/mL. Take `N=C(N)NCCCNCc1ccc(-c2c[nH]c(NC(=O)NC3CCN(Cc4cc(F)c(F)cc4F)CC3)nc2=O)cc1` [Compound 652]: the MIC was greater than 16 µg/mL. Turning to `N=C(N)NCCCN(CCC1CC1)Cc1ccc(-c2c[nH]c(NC(=O)Nc3cc(F)c(F)cc3F)nc2=O)cc1` [Compound 680], the MIC is greater than 16 µg/mL. On to `NCCCNCc1ccc(-c2c[nH]c(NC(=O)NC3CN(Cc4cc(F)c(F)cc4F)C3)nc2=O)cc1` [Compound 710], for which the minimal inhibitory concentration (MIC) was greater than 16 µg/mL. Under `N=C(N)NCCCNCc1ccc(-c2c[nH]c(NC(=O)NC3CN(Cc4cc(F)c(F)cc4F)C3)nc2=O)cc1` [Compound 712] stands greater than 16 µg/mL; under `N=C(N)NCCCNCc1ccc(-c2c[nH]c(NC(=O)NC3CCN(Cc4cc(F)c(F)cc4F)C3)nc2=O)cc1` (stereo not drawn) [Compound 735], greater than 16 µg/mL. Consider `N=C(N)NCCCNCc1ccc(-c2c[nH]c(NC(=O)NCCOc3cc(F)c(F)cc3F)nc2=O)cc1` [Compound 739], for which the MIC is greater than 16 µg/mL.

In the case of `N=C(N)NCCCNCc1ccc(-c2c[nH]c(NC(=O)NC3CN(C(=O)Nc4cc(F)c(F)cc4F)C3)nc2=O)cc1` [Compound 747], the minimal inhibitory concentration (MIC) is less than 16 µg/mL. Under `N=C(N)NCCCNCc1ccc(-c2c[nH]c(NC(=O)NC3CN(S(=O)(=O)c4cc(F)cc(F)c4F)C3)nc2=O)cc1` [Compound 779] stands greater than 16 µg/mL. Turning to `N=C(N)NCCCNCc1ccc(-c2c[nH]c(NC(=O)NC3CN(C(=O)c4cc(F)cc(F)c4F)C3)nc2=O)cc1` [Compound 780], the minimum inhibitory concentration (MIC) was greater than 16 µg/mL. Under `CN(C)CCCOc1ccccc1NC(=O)Nc1nc(=O)c(-c2ccc(CNCCCN)cc2)c[nH]1` [Compound 1291] stands greater than 16 µg/mL; under `NCCCNCc1ccc(-c2c[nH]c(NC(=O)Nc3ccccc3OCCCO)nc2=O)cc1` [Compound 1294], greater than 16 µg/mL; under `NCCCNCc1ccc(-c2c[nH]c(NC(=O)Nc3ccccc3OCCNC(N)=O)nc2=O)cc1` [Compound 1295], greater than 16 µg/mL. With `NCCCNCc1ccc(-c2c[nH]c(NC(=O)Nc3ccccc3OCCCN)nc2=O)cc1` [Compound 1296], the MIC is greater than 16 µg/mL. Under `NCCCNCc1ccc(-c2c[nH]c(NC(=O)Nc3ccccc3OCCCC(=O)O)nc2=O)cc1` [Compound 1297] stands greater than 16 µg/mL.

`CCN[C@@H]1CCCCC1NC(=O)Nc1nc(=O)c(-c2ccc(CN)cc2)c[nH]1` (stereo partly drawn) [Compound 1302]: the MIC is greater than 16 µg/mL. For the compound `NCCCN1CCC[C@H](NC(=O)Nc2nc(=O)c(-c3ccc(CN)cc3)c[nH]2)C1` [Compound 1303], the MIC was greater than 16 µg/mL. Under `NCCCN1CCC[C@@H](NC(=O)Nc2nc(=O)c(-c3ccc(CN)cc3)c[nH]2)C1` [Compound 1304] stands greater than 16 µg/mL; under `NCc1ccc(-n2ccc(NC(=O)NC3CCCNC3)nc2=O)cc1` (stereo not drawn) [Compound 1305], greater than 16 µg/mL. Under `NCc1ccc(-c2c[nH]c(NC(=O)NC3CCCN(CCO)C3)nc2=O)cc1` (stereo not drawn) [Compound 1317] stands greater than 16 µg/mL; under `NCCCN[C@@H]1CCCCC1NC(=O)Nc1nc(=O)c(-c2ccc(CN)cc2)c[nH]1` (stereo partly drawn) [Compound 1338], greater than 16 µg/mL. Take `NCc1ccc(-c2c[nH]c(NC(=O)NC3CCCC[C@H]3NCC(F)(F)F)nc2=O)cc1` (stereo partly drawn) [Compound 1357]: the MIC is greater than 16 µg/mL.

For the origin of these results see US9845297B2, “Antimicrobial compounds and methods of making and using the same” (Melinta Therapeutics, Inc., priority 2009, dated 2017).
